A short description of test [1]: inhibitors of PAF-induced NFkB signaling in CF airway cells, dose response, cell-based, uHTS hits, panel, cytotoxicity readout (AID 624344). The note with it: CF bronchial epithelial cells, PAF-induced NFkB reporter inhibition; with PAF, mean of runs.
A further test relates to Cytotoxicity. The test is described as above. As to conditions: CF bronchial epithelial cells, mean of runs.

The source made the active and inactive calls. No rule for the calls is given here. Square brackets hold non-standard residues; d marks the D form. Peptide text beside a SMILES is read from it. NMeY = CN[C@@H](Cc1ccc(O)cc1)C(=O)O; NMeF = CN[C@@H](Cc1ccccc1)C(=O)O; 2Abz = Nc1ccccc1C(=O)O

With `Cc1cnc(NC(=O)CCCc2nc3ccccc3s2)s1`, the IC50 in test [1] was 4.23 µM; in the test with Cytotoxicity it was 44.5 µM.
The corresponding values for `Clc1ccc(CSc2nnc(-c3ccncc3)o2)cc1` are 5.92 µM and > 79 µM (inactive).
The like results for `Cc1cccc(NS(=O)(=O)c2ccc(-c3cnc(C4CC4)o3)cc2)c1C` were, in that order, 6.37 µM and 56.2 µM (inactive).
The like results for `O=C(Nc1ccccc1N1CCOCC1)c1cc(-c2ccco2)nc2ccccc12` were, in that order, 3.88 µM and 9.59 µM.
Take `COc1ccc(Nc2nc(-c3cccs3)nc3ccccc23)cc1S(=O)(=O)N1CCOCC1`: the IC50 in test [1] is 3.78 µM; with Cytotoxicity it was 8.98 µM.
With `Cc1[nH]nc2nc(SCC(=O)NCCC3=CCCCC3)n(-c3ccc(Br)cc3)c(=N)c12`, the results for the IC50 (in test [1]; with Cytotoxicity) were 8.27 µM and 6.73 µM, respectively.
The like results for `COc1ccc(NC(=O)c2cc3c(-c4ccc(OC)c(OC)c4)nn(C)c3s2)cc1OC` were, in that order, 6.06 µM and 5.55 µM.
The like results for `O=[N+]([O-])c1cc([N+](=O)[O-])c2oc(-c3ccccc3)c(Br)c2c1O` were, in that order, 2.3 µM and 4.56 µM.
As to `CCOc1ccc(-n2cc(-c3ccccc3)c3c(N4CCOCC4)ncnc32)cc1`, the IC50 in test [1] was 3.99 µM; with Cytotoxicity, 7.28 µM.
The corresponding values for `O=C(NCc1nc(-c2ccc(C(F)(F)F)cc2)no1)Nc1cc(Cl)cc(Cl)c1` are 5.81 µM and 5.56 µM.
The like results for `Oc1ccc(CCNc2ncnc3ccc(Cl)cc23)cc1` were, in that order, 0.831 µM and 40.6 µM.
The like results for `O=C(NC1CCCC(C(F)(F)F)C1)c1ccc([N+](=O)[O-])o1` (stereo unspecified) were, in that order, 3.87 µM and 11 µM.
In the case of `CCOc1ccc(-n2c(C)c(C(C)=O)c3cc(O)ccc32)cc1`, the half-maximal inhibitory concentration (IC50) in test [1] is 1.87 µM; with Cytotoxicity, > 79 µM (inactive).
As to `COc1ccc(-c2csc3ncnc(NCCO)c23)cc1`, the IC50 was 1.85 µM in test [1] and 54 µM (inactive) in the test with Cytotoxicity.
The like results for `COc1ccc(-c2cn[nH]c2-c2ccc(OCc3ccccc3F)cc2O)cc1OC` were, in that order, 3.57 µM and 18 µM.
The like results for `OCCN1CCN(c2ncnc3ccc(Br)cc23)CC1` were, in that order, 2.44 µM and 55.7 µM (inactive).
The like results for `CC(C)C[C@H]1CNC(=S)N1C[C@H]1CCCN1C[C@H](Cc1ccc(O)cc1)N1C[C@H](Cc2ccc(O)cc2)N(CC2CCCCC2)C1=S` were, in that order, “inactive” and 51.2 µM (inactive).
For the molecule `Oc1ccc(Cl)cc1Cc1cc(Cl)ccc1O`, the IC50 in test [1] is 6.19 µM; in the test with Cytotoxicity, 25.2 µM.
The corresponding values for `Cc1ccc(C(=O)Nc2cccc(C(F)(F)F)c2)cc1NC(=O)c1ccno1` are 0.626 µM and > 79 µM (inactive).
The corresponding values for `CS(=O)(=O)c1ncc(Cl)c(C(=O)Nc2ccc(OC(F)F)cc2)n1` are 1.78 µM and 3.58 µM.
The like results for `COc1cc(NC(=O)c2csc(-c3ccncc3)n2)cc(C(=O)Nc2cccc(C(F)(F)F)c2)c1` were, in that order, 4.32 µM and 46 µM.
Turning to `Cc1cccc2sc(N(CCCN(C)C)C(=O)CCS(=O)(=O)c3ccccc3)nc12`, the IC50 in test [1] is 3.22 µM; in the test on Cytotoxicity, 7.52 µM.
The like results for `COc1ccc(-c2cn[nH]c2-c2ccc(OC)cc2)cc1` were, in that order, 2.53 µM and 63.5 µM (inactive).
The corresponding values for `CCOC(=O)Nc1nc(-c2ccccc2)c(C(=O)c2ccccc2)s1` are 14.3 µM and > 79 µM (inactive).
The like results for `COc1ccc(C(c2nnnn2-c2ccc(OC)cc2)N2CCC(n3c(=O)[nH]c4ccccc43)CC2)cc1` (stereo unspecified) were, in that order, 5.8 µM and 11.7 µM.
`N#Cc1cccc(NC(=O)COC(=O)c2ccccc2C(=O)c2ccc(Cl)c([N+](=O)[O-])c2)c1`: the values for the IC50 (in test [1]; in the test with Cytotoxicity) were 2.66 µM and 9.79 µM, respectively.
The corresponding values for `CC(=C/c1ccccc1)/C=N/n1c(-c2ccncc2)n[nH]c1=S` are 0.43 µM and 65.2 µM (inactive).
For `Cc1ccc(C(=O)Nc2cccc(C(F)(F)F)c2)cc1NC(=O)c1cnnc2ccccc12`, the results for the IC50 (in test [1]; in the test with Cytotoxicity) were 6.43 µM and 22.6 µM, respectively.
The like results for `O=[N+]([O-])c1ccc(NC(=S)NCCc2ccc(F)cc2)cc1` were, in that order, 4.58 µM and 4.52 µM.
`FC(F)Sc1ccc(NC(=S)NCC2CCCCC2)cc1`: the IC50 in test [1] was 5.53 µM; in the test on Cytotoxicity it was 7.18 µM.
The like results for `CC(C)C[C@@H]1NC(=O)[C@H](Cc2ccccc2)N(C)C(=O)[C@H](C)NC(=O)c2ccccc2NC(=O)[C@H](Cc2ccc(O)cc2)N(C)C1=O` (cyclo([2Abz]A[NMeF]L[NMeY])) were, in that order, 3.42 µM and 6.59 µM.
The corresponding values for `COc1cc2c(c(OC)c1O)-c1ccc(OC)c(=O)cc1C(NC(=O)C(F)(F)F)CC2` (stereo unspecified) are > 79 µM (inactive) and > 79 µM (inactive).
The like results for `NC(=S)N1OC[C@@H]2COc3ccc4ccccc4c3[C@@H]21` were, in that order, 4.75 µM and 31.2 µM.

Broadly, the IC50 is the midpoint of a concentration-inhibition curve.

Source of the values: PubChem BioAssay AID624344 (Sanford-Burnham Center for Chemical Genomics, 2012).
